Source: patent US11066393B2, “Indolin-2-one derivatives” (Hoffmann-La Roche Inc., priority 2015, dated 2021)

Columns and labels:
mouse ENT-1 transporter = molecular target: T1, mouse ENT-1 transporter (Mus musculus, UniProt Q9JIM1); assay: Adenosine transport activity (ENT1, [3H]-adenosine uptake); format: cell-based; details: stable cells expressing mouse ENT-1; [2,8-3H]-adenosine 6 nM, 20 min
T1 construct: expressed in transfected cells
T1 sequence (Q9JIM1 1-460): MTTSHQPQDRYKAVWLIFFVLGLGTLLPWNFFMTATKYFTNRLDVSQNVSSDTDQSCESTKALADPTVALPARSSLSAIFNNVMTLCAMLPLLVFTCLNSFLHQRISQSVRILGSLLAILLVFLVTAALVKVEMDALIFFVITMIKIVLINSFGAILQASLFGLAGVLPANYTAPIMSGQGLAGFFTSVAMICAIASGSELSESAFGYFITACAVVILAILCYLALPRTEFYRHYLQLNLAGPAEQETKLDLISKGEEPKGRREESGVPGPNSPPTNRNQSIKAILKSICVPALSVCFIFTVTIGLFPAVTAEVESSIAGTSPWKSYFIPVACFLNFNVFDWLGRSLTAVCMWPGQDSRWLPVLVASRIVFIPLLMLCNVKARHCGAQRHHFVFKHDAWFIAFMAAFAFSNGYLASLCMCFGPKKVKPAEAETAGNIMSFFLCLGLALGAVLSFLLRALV
Protocol: To measure adenosine transport activity of ENT-1 mammalian cells, stable cells expressing the mouse ENT-1 transporter were plated on day 1 in 96-well culture plates at the density of 60,000 cells/well, in complete DMEM/F12 medium supplemented with glutamax, 10% FBS and 10 μg/ml puromycin. On day 2, the medium was aspirated and the cells were washed twice with uptake buffer (10 mM Hepes-Tris, pH 7.4 containing 150 mM NaCl, 1 mM CaCl2, 2.5 mM KCl, 2.5 mM MgSO4, 10 mM D-glucose) (UB). For inhibition experiments, cells were then incubated at RT with various concentrations of compounds with 1% DMSO final. Non-specific uptake was defined in the presence of 10 μM S-(4-Nitrobenzyl)-6-thioinosine (NBTI, Sigma Cat #N2255).
A solution containing [2,8-^3H]-adenosine 6 nM (40 Ci/mmol, American Radiolabeled chemicals Inc, Cat #ART 0287A) was then immediately added to the wells. The plates were then incubated for 20 min with gentle shaking and the reaction was stopped by aspiration of the mixture and washing (three times) with ice-cold UB. The cells were lysed by the addition of scintillation liquid, shaken 3 hours and the radioactivity in the cells was estimated using a microplates scintillation counter (TopCount NXT, Packard).

[1] = system: L-687,414-induced hyperlocomotion; assay: Reduction of L-687,414-induced hyperlocomotion; format: in vivo, mouse; details: mice, dose 30 mg/kg ip, 15 min before s.c. 50 mg/kg L-687,414
From the text: The authors described that hyperlocomotion induced by L-687,414 was inhibited by a series of known antipsychotic drugs. […] These findings predict antipsychotic activity for the present compounds, making them useful for the treatment of positive (psychosis) and negative symptoms of schizophrenia, substance abuse, alcohol and drug addiction, obsessive-compulsive disorders, cognitive impairment, bipolar disorders, mood disorders, major depression, resistant depression, anxiety disorders, Alzheimer's disease, autism, Parkinson's disease, chronic pain, borderline personality disorder, sleep disturbances, chronic fatigue syndrome, stiffness, antiinflammatory effects in arthritis and balance problems, epilepsy and neurodevelopmental disorders with co-morbid epilepsy.
The described compounds of formula I reduce L-687,414-induced hyperlocomotion. This was assessed by using a computerized Digiscan 16 Animal Activity Monitoring System (Omnitech Electronics, Columbus, Ohio) to quantify locomotor activity. Animals were kept under a 12 h light/dark cycle and experiments were performed during the light period. Each activity monitoring chamber consisted of a Plexiglas box (41×41×28 cm; W×L×H) with sawdust bedding on the floor surrounded by invisible horizontal and vertical infrared sensor beams. The test boxes were divided by a Plexiglas cross providing each mouse with 20×20 cm of moving space. Cages were connected to a Digiscan Analyzer linked to a computer that constantly collected the beam status information. Records of photocell beam interruptions for individual animals were taken every 5 min over the duration of the experimental session and the sum of the first 6 periods was used as the final parameter. At least 8 mice were used in each treatment group. Compounds were administered i.p. 15 min before a s.c. injection of 50 mg/kg of L-687,414. Mice were then transferred from their home cage to the recording chambers for a 15-min habituation phase allowing free exploration of the new environment. Horizontal activity was then recorded for a 30-min time period. The % inhibition of L-687,414-induced hyperlocomotion was calculated according to the equation: ((Veh+L-687,414 horizontal activity−drug+L-687,414 horizontal activity)/Veh+L-687,414 horizontal activity)×100
ID50 values, defined as doses of each compound producing 50% inhibition of L-687,414-induced hyperlocomotion, were calculated by linear regression analysis of a dose-response data using an Excel-based computer-fitting program. As data was not presupposed to be normally distributed, groups treated with test compounds were statistically compared with the control (vehicle-treated) group using one-tailed Mann Whitney U tests. In statistics, the Mann-Whitney U test (also called the Mann-Whitney-Wilcoxon (MWW) or Wilcoxon rank-sum test) is a non-parametric statistical hypothesis test for assessing whether one of two samples of independent observations tends to have larger values than the other. It is one of the most well-known non-parametric significance tests. […] P values given in table 1 are one-tailed since only decreases in locomotion were expected and tested for (Mann, H. B., Whitney, D. R. (1947), “On a Test of Whether one of Two Random Variables is Stochastically Larger than the Other”, Annals of Mathematical Statistics, 18 (1), 50-60).

Compound	IC50 (mouse ENT-1 transporter) [nM]	Inhibition, ip [%] of L-687,414-induced hyperlocomotion [1] [%]
Cc1ncc(-c2ccc3c(c2)N(c2cnc(C(=O)N(C)C)cn2)C(=O)C3(C)C)cn1 [Example 11, 5-[3,3-Dimethyl-6-(2-methylpyrimidin-5-yl)-2-oxoindol-1-yl]-dimethylpyrazine-2-carboxamide]	123	98.4
CNC(=O)c1ccnc(N2C(=O)C(C)(C)c3ccc(-c4cnc(C)nc4)cc32)n1 [Example 16, 2-(3,3-Dimethyl-6-(2-methylpyrimidin-5-yl)-2-oxoindolin-1-yl)-N-methylpyrimidine-4-carboxamide]	241	94.6
CNC(=O)c1cccc(N2C(=O)C(C)(C)c3ccc(-c4cnc(C)nc4)cc32)n1 [Example 22, 6-(3,3-Dimethyl-6-(2-methylpyrimidin-5-yl)-2-oxoindolin-1-yl)-N-methylpicolinamide]	8.5	95.6
Cc1ncc(-c2ccc3c(c2)N(c2ccc(C(=O)N(C)C)cn2)C(=O)C3(C)C)cn1 [Example 29, 6-(3,3-Dimethyl-6-(2-methylpyrimidin-5-yl)-2-oxoindolin-1-yl)-N,N-dimethylnicotinamide]	585	93
Cc1ncc(-c2ccc3c(c2)N(c2ccc4c(n2)C(=O)NC4(C)C)C(=O)C3(C)C)cn1 [Example 38, 2-(3,3-Dimethyl-6-(2-methylpyrimidin-5-yl)-2-oxoindolin-1-yl)-5,5-dimethyl-5H-pyrrolo[3,4-b]pyridin-7(6H)-one]	239	–
CNC(=O)c1nc(N2C(=O)C(C)(C)c3ccc(-c4cnc(C)nc4)cc32)cn1C [Example 45, 4-(3,3-Dimethyl-6-(2-methylpyrimidin-5-yl)-2-oxoindolin-1-yl)-N,1-dimethyl-1H-imidazole-2-carboxamide]	21	–
Cc1ncc(-c2ccc3c(c2)N(c2cn(C)c(C(=O)N(C)C)n2)C(=O)C3(C)C)cn1 [Example 46, 4-(3,3-Dimethyl-6-(2-methylpyrimidin-5-yl)-2-oxoindolin-1-yl)-N,N,1-trimethyl-1H-imidazole-2-carboxamide]	46.9	–

More lines, main results first:

IC50 (mouse ENT-1 transporter) [nM]	Compound	Inhibition, ip [%] of L-687,414-induced hyperlocomotion [1] [%]
28	CNC(=O)c1cncc(N2C(=O)C(C)(C)c3ccc(-c4cnc(C)nc4)cc32)n1 [Example 2, 6-(3,3-Dimethyl-6-(2-methylpyrimidin-5-yl)-2-oxoindolin-1-yl)-N-methylpyrazine-2-carboxamide]	97.5
88.4	COCCNC(=O)c1cncc(N2C(=O)C(C)(C)c3ccc(-c4cnc(C)nc4)cc32)n1 [Example 7, 6-(3,3-Dimethyl-6-(2-methylpyrimidin-5-yl)-2-oxoindolin-1-yl)-N-(2-methoxyethyl)pyrazine-2-carboxamide]	88.1
45.8	Cc1ncc(-c2ccc3c(c2)N(c2cccc(C(=O)NC4CC4)n2)C(=O)C3(C)C)cn1 [Example 24, N-Cyclopropyl-6-(3,3-dimethyl-6-(2-methylpyrimidin-5-yl)-2-oxoindolin-1-yl)picolinamide]	99.1
76.4	Cc1ncc(-c2ccc3c(c2)N(c2cncc(C(=O)NC4CC4)n2)C(=O)C3(C)C)cn1 [Example 39, N-Cyclopropyl-6-(3,3-dimethyl-6-(2-methylpyrimidin-5-yl)-2-oxoindolin-1-yl)pyrazine-2-carboxamide]	–
323	Cc1ncc(-c2ccc3c(c2)N(c2cncc(C(=O)NC4CC(F)(F)C4)n2)C(=O)C3(C)C)cn1 [Example 40, N-(3,3-Difluorocyclobutyl)-6-(3,3-dimethyl-6-(2-methylpyrimidin-5-yl)-2-oxoindolin-1-yl)pyrazine-2-carboxamide]	–
129	Cc1ncc(-c2ccc3c(c2)N(c2cncc(C(=O)NC4CCC4)n2)C(=O)C3(C)C)cn1 [Example 42, N-Cyclobutyl-6-(3,3-dimethyl-6-(2-methylpyrimidin-5-yl)-2-oxoindolin-1-yl)pyrazine-2-carboxamide]	–
319	Cc1ncc(-c2ccc3c(c2)N(c2cncc(C(=O)NC4COC4)n2)C(=O)C3(C)C)cn1 [Example 43, 6-(3,3-Dimethyl-6-(2-methylpyrimidin-5-yl)-2-oxoindolin-1-yl)-N-(oxetan-3-yl)pyrazine-2-carboxamide]	–
243	Cc1ncc(-c2ccc3c(c2)N(c2cncc(C(=O)NC(C)(C)C)n2)C(=O)C3(C)C)cn1 [Example 44, N-(tert-Butyl)-6-(3,3-dimethyl-6-(2-methylpyrimidin-5-yl)-2-oxoindolin-1-yl)pyrazine-2-carboxamide]	–
